From ChEMBL document CHEMBL3875175, “Multi-targeting exploration of new 2-aminothiazolyl quinolones: Synthesis, antimicrobial evaluation, interaction with DNA, combination with topoisomerase IV and penetrability into cells” (Eur J Med Chem, 2016)
Values after ≈ are worked out from the molar mass of the structure shown. Active and inactive are the calls of the source. No cut-off for these calls is given here.

Key:
[1] = Antifungal activity against Candida utilis after 24 hrs by two fold serial dilution method; format: functional; conditions: Cyberlindnera jadinii
Aspergillus flavus [2] = assay: Antifungal activity against Aspergillus flavus after 24 hrs by two fold serial dilution method; format: functional
Escherichia coli [3] = assay: Antibacterial activity against Escherichia coli DH52 after 24 hrs by two fold serial dilution method; format: functional; conditions: DH52, 24 h
Candida albicans = assay: Antifungal activity against Candida albicans ATCC 76615 after 24 hrs by two fold serial dilution method; format: functional; conditions: ATCC 76615, 24 h
Staphylococcus aureus [4] = assay: Antibacterial activity against Staphylococcus aureus ATCC 25923 after 24 hrs by two fold serial dilution method; format: functional; conditions: ATCC 25923, 24 h
Proteus vulgaris = assay: Antibacterial activity against Bacillus proteus ATCC 13315 after 24 hrs by two fold serial dilution method; format: functional; conditions: ATCC 13315, 24 h
Shigella dysenteriae = assay: Antibacterial activity against Shigella dysenteriae after 24 hrs by two fold serial dilution method; format: functional
Saccharomyces cerevisiae = assay: Antifungal activity against Beer yeast after 24 hrs by two fold serial dilution method; format: functional
Salmonella typhi [5] = assay: Antibacterial activity against Bacillus typhi after 24 hrs by two fold serial dilution method; format: functional, Salmonella enterica subsp. enterica serovar Typhi; conditions: Salmonella enterica
Escherichia coli [6] = assay: Antibacterial activity against Escherichia coli JM109 after 24 hrs by two fold serial dilution method; format: functional; conditions: JM109, 24 h
Bacillus spizizenii = assay: Antibacterial activity against Bacillus subtilis ATCC 6633 after 24 hrs by two fold serial dilution method; format: functional; conditions: ATCC 6633, 24 h
Pseudomonas aeruginosa = assay: Antibacterial activity against Pseudomonas aeruginosa ATCC 27853 after 24 hrs by two fold serial dilution method; format: functional; conditions: ATCC 27853, 24 h
Micrococcus luteus = assay: Antibacterial activity against Micrococcus luteus ATCC 4698 after 24 hrs by two fold serial dilution method; format: functional; conditions: NCTC 2665, 24 h
[7] = Antifungal activity against Candida mycoderma after 24 hrs by two fold serial dilution method; format: functional; conditions: Pichia norvegensis
Staphylococcus aureus [8] = assay: Antibacterial activity against methicillin-resistant Staphylococcus aureus N315 after 24 hrs by two fold serial dilution method; format: functional; conditions: N315, 24 h
Bos taurus [9] = species on record: Bos taurus; assay: Binding affinity to calf thymus DNA by UV-Visible spectroscopic method
[10] = Cytotoxicity against mouse L929 cells assessed as reduction in cell viability after 48 hrs by MTT assay; format: toxicity
Staphylococcus aureus [11] = assay: Induction of membrane permeabilization in methicillin-resistant Staphylococcus aureus N315 at 12 times MIC measured for 2 hrs by propidium iodide staining based fluorescence assay; format: functional
Bos taurus [12] = species on record: Bos taurus; assay: Binding affinity to calf thymus DNA assessed as DNA intercalation up to 1.75 x 10^-5mol/L by neutral red dye based UV-Visible spectroscopic method
Staphylococcus aureus [13] = assay: Antibacterial activity against methicillin-resistant Staphylococcus aureus N315 after 15 days by serial passage resistance development assay; format: functional
Aspergillus flavus [14] = assay: Potency index, ratio of fluconazole MIC80 to compound MIC80 for Aspergillus flavus; format: functional
Staphylococcus aureus [15] = assay: Bactericidal activity against methicillin-resistant Staphylococcus aureus N315 assessed as log reduction in bacterial count at 4 times MIC up to 1 hr by time-kill kinetic assay; format: functional
Salmonella typhi [16] = assay: Induction of membrane permeabilization in Bacillus typhi at 12 times MIC measured for 2 hrs by propidium iodide staining based fluorescence assay; format: functional; conditions: Salmonella enterica subsp. enterica serovar Typhi
Salmonella typhi [17] = assay: Potency index, ratio of norfloxacin MIC to compound MIC for Bacillus typhi; format: functional, Salmonella enterica subsp. enterica serovar Typhi
Salmonella typhi [18] = assay: Potency index, ratio of chloromycin MIC to compound MIC for Bacillus typhi; format: functional, Salmonella enterica subsp. enterica serovar Typhi
Bos taurus [19] = species on record: Bos taurus; assay: Binding affinity to calf thymus DNA assessed as hypochromism up to 9 x 10^-5mol/L by UV-Visible spectroscopic method

| Compound | MIC80 [1] [mg/L] | MIC80 (Aspergillus flavus [2]) [mg/L] | MIC (Escherichia coli [3]) [mg/L] | MIC80 (Candida albicans) [mg/L] | MIC (Staphylococcus aureus [4]) [mg/L] | MIC (Proteus vulgaris) [mg/L] | MIC (Shigella dysenteriae) [mg/L] | MIC80 (Saccharomyces cerevisiae) [mg/L] | MIC (Salmonella typhi [5]) [mg/L] | MIC (Escherichia coli [6]) [mg/L] | MIC (Bacillus spizizenii) [mg/L] | MIC (Pseudomonas aeruginosa) [mg/L] | MIC (Micrococcus luteus) [mg/L] | MIC80 [7] [mg/L] | MIC (Staphylococcus aureus [8]) [mg/L] | further results |
| --- | --- | --- | --- | --- | --- | --- | --- | --- | --- | --- | --- | --- | --- | --- | --- | --- |
| CCCCCCCn1cc(-c2cnc(N)s2)c(=O)c2cc(F)cc(F)c21 | 64 (≈ 170 µM) | 64 (≈ 170 µM) | 32 (≈ 84.8 µM) | 32 (≈ 84.8 µM) | 256 (≈ 678 µM) | 32 (≈ 84.8 µM) | 32 (≈ 84.8 µM) | 16 (≈ 42.4 µM) | 64 (≈ 170 µM) | 128 (≈ 339 µM) | 64 (≈ 170 µM) | 32 (≈ 84.8 µM) | 256 (≈ 678 µM) | 256 (≈ 678 µM) | 128 (≈ 339 µM) | – |
| Nc1ncc(-c2cn(Cc3cccc(Cl)c3)c3c(F)cc(F)cc3c2=O)s1 | 256 (≈ 634 µM) | 64 (≈ 158 µM) | 32 (≈ 79.2 µM) | 128 (≈ 317 µM) | 64 (≈ 158 µM) | 256 (≈ 634 µM) | 128 (≈ 317 µM) | 64 (≈ 158 µM) | 32 (≈ 79.2 µM) | 256 (≈ 634 µM) | 256 (≈ 634 µM) | 64 (≈ 158 µM) | 128 (≈ 317 µM) | 64 (≈ 158 µM) | 128 (≈ 317 µM) | – |
| Nc1ncc(-c2cn(Cc3ccc(Cl)cc3)c3c(F)cc(F)cc3c2=O)s1 | 256 (≈ 634 µM) | 64 (≈ 158 µM) | 64 (≈ 158 µM) | 512 (≈ 1270 µM) | 128 (≈ 317 µM) | 32 (≈ 79.2 µM) | 16 (≈ 39.6 µM) | 128 (≈ 317 µM) | 32 (≈ 79.2 µM) | 128 (≈ 317 µM) | 256 (≈ 634 µM) | 128 (≈ 317 µM) | 64 (≈ 158 µM) | 256 (≈ 634 µM) | 64 (≈ 158 µM) | – |
| Nc1ncc(-c2cn(Cc3cccc(F)c3)c3c(F)cc(F)cc3c2=O)s1 | 64 (≈ 165 µM) | 64 (≈ 165 µM) | 128 (≈ 330 µM) | 64 (≈ 165 µM) | 64 (≈ 165 µM) | 32 (≈ 82.6 µM) | 64 (≈ 165 µM) | 64 (≈ 165 µM) | 32 (≈ 82.6 µM) | 128 (≈ 330 µM) | 128 (≈ 330 µM) | 64 (≈ 165 µM) | 128 (≈ 330 µM) | 32 (≈ 82.6 µM) | 32 (≈ 82.6 µM) | – |
| C#CCn1cc(-c2cnc(N)s2)c(=O)c2cc(F)cc(F)c21 | 32 (≈ 101 µM) | 8 (≈ 25.2 µM) | 16 (≈ 50.4 µM) | 16 (≈ 50.4 µM) | 8 (≈ 25.2 µM) | 32 (≈ 101 µM) | 8 (≈ 25.2 µM) | 8 (≈ 25.2 µM) | 1 (≈ 3.15 µM) | 32 (≈ 101 µM) | 16 (≈ 50.4 µM) | 16 (≈ 50.4 µM) | 32 (≈ 101 µM) | 8 (≈ 25.2 µM) | 8 (≈ 25.2 µM) | K (Bos taurus [9]): 0.538 ×10⁴ L/mol; IC50 at 48 h [10]: 289 mg/L (≈ 911 µM); Activity (Staphylococcus aureus [11]): Active; Activity (Bos taurus [12]): Active; Activity (Staphylococcus aureus [13]): Active; Ratio (Aspergillus flavus [14]): 32; Activity (Staphylococcus aureus [15]): 3 log10CFU/ml; Activity (Salmonella typhi [16]): Active; Ratio (Salmonella typhi [17]): 4; Ratio (Salmonella typhi [18]): 32; Activity (Bos taurus [19]): Active |
| COc1ccc(Cn2cc(-c3cnc(N)s3)c(=O)c3cc(F)cc(F)c32)cc1 | 512 (≈ 1280 µM) | 64 (≈ 160 µM) | 64 (≈ 160 µM) | 256 (≈ 641 µM) | 256 (≈ 641 µM) | 256 (≈ 641 µM) | 128 (≈ 320 µM) | 64 (≈ 160 µM) | 64 (≈ 160 µM) | 128 (≈ 320 µM) | 128 (≈ 320 µM) | 64 (≈ 160 µM) | 64 (≈ 160 µM) | 256 (≈ 641 µM) | 256 (≈ 641 µM) | – |
| Nc1ncc(-c2cn(Cc3ccccc3Cl)c3c(F)cc(F)cc3c2=O)s1 | 64 (≈ 158 µM) | 64 (≈ 158 µM) | 128 (≈ 317 µM) | 128 (≈ 317 µM) | 128 (≈ 317 µM) | 256 (≈ 634 µM) | 64 (≈ 158 µM) | 128 (≈ 317 µM) | 128 (≈ 317 µM) | 128 (≈ 317 µM) | 256 (≈ 634 µM) | 32 (≈ 79.2 µM) | 64 (≈ 158 µM) | 64 (≈ 158 µM) | 64 (≈ 158 µM) | – |
| CCn1cc(C(=O)O)c(=O)c2cc(F)c(N3CCNCC3)cc21 [NORFLOXACIN] | – | – | 1 (≈ 3.13 µM) | – | 2 (≈ 6.26 µM) | 8 (≈ 25.1 µM) | 16 (≈ 50.1 µM) | – | 4 (≈ 12.5 µM) | 1 (≈ 3.13 µM) | 4 (≈ 12.5 µM) | 16 (≈ 50.1 µM) | 2 (≈ 6.26 µM) | – | 8 (≈ 25.1 µM) | – |
